Patent publication US9096624B2 (OSI Pharmaceuticals, LLC, priority 2009, dated 2015)
pIC50: −log10 of the molar value.

Key:
FAK [1] = biological target: T1, FAK (Homo sapiens, UniProt Q05397); assay: Cell-based capture ELISA for inhibition of FAK autophosphorylation [pY397] in MiaPaCa2 cells
Description: Cell-Based Assays for Inhibition of FAK Autophosphorylation: MiaPaCa2 and U87MG
ELISA kit from Invitrogen (KHO0441).
Reagents Provided in Biosource FAK [pY397]
The cells were then suspended in cell assay medium.

FAK [2] = biological target: T1, FAK; assay: biochemical
[3] = MIA-PaCa2 cells, + 50% mouse plasma (Table 3), read-out: Mean FAK Cell Mechanistic IC50 + 50% mP MIA-PaCa2
[4] = MIA-PaCa2 cells on fibronectin, 2 h, no plasma, read-out: Mean FAK Cell Mechanistic IC50 MIA-PaCa2
[5] = MIA-PaCa2 cells, + 50% human plasma, read-out: Mean FAK Cell Mechanistic IC50 + 50% hP MIA-PaCa2
[6] = MIA-PaCa2 cells, + 50% mouse plasma (Table 2), read-out: Mean FAK Cell Mechanistic IC50 + 50% mP MIA-PaCa2

T1 sequence (Q05397 whole entry): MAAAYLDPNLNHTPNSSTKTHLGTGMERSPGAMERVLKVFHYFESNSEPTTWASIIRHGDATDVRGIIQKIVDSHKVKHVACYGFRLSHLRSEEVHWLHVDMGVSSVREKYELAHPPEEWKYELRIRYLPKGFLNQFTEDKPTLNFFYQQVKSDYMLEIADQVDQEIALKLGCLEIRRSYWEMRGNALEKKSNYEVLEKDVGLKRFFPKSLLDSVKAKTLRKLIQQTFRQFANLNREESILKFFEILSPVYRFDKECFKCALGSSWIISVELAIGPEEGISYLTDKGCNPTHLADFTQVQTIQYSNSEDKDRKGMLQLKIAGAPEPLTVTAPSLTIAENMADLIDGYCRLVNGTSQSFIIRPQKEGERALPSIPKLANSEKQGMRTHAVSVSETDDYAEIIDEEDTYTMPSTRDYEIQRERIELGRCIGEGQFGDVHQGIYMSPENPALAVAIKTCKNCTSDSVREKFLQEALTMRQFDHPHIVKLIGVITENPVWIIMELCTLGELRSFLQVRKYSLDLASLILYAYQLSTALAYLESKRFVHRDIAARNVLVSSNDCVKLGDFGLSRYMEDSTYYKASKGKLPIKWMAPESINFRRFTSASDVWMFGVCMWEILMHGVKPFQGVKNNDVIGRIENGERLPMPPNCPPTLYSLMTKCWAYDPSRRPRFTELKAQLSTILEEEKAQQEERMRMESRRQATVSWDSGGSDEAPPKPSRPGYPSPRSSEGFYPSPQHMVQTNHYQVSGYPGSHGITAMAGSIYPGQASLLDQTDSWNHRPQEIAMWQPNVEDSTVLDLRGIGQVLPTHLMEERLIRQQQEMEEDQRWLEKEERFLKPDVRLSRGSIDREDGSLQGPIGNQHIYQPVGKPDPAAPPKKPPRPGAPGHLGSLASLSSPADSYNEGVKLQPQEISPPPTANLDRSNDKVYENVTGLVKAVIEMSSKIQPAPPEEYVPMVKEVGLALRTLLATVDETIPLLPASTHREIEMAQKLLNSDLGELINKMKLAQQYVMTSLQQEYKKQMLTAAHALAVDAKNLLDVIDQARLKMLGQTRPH

SMILES | pIC50 (FAK [1]; [3]) | pIC50 (FAK [2]) | pIC50 (FAK [1]; [4]) | pIC50 (FAK [1]; [5]) | pIC50 (FAK [1]; [6])
CCOP(=O)(Cc1ccc(Nc2ncc(C(F)(F)F)c(Nc3ccc([C@H]4CC[C@@H](O)CC4)cc3C(=O)NC)n2)c(OC)c1)OCC [Example 140, Diethyl (4-{[4-{[4-(cis-4-hydroxycyclohexyl)-2-(methylcarbamoyl)phenyl]amino}-5-(trifluoromethyl)pyrimidin-2-yl]amino}-3-methoxybenzyl)phosphonate] | > 6.00 | > 6.00 | – | – | –
CCOP(=O)(Cc1ccc(Nc2ncc(C(F)(F)F)c(Nc3ccc(C#N)cc3C(=O)NC)n2)c(OC)c1)OCC [Example 151, Diethyl (4-{[4-{[4-cyano-2-(methylcarbamoyl)phenyl]amino}-5-(trifluoromethyl)pyrimidin-2-yl]amino}-3-methoxybenzyl)phosphonate] | > 6.00 | > 6.00 | – | – | –
CCP(=O)(CC)Cc1ccc(Nc2ncc(C(F)(F)F)c(NCc3cccnc3N(C)S(C)(=O)=O)n2)cc1 [Example 10, N-[3-({[2-({4-[(diethylphosphoryl)methyl]phenyl}amino)-5-(trifluoromethyl)pyrimidin-4-yl]amino}methyl)pyridin-2-yl]-N-methylmethanesulfonamide] | – | > 6.00 | > 6.00 | > 6.00 | > 6.00
CCOP(=O)(OCC)c1cccc(Nc2ncc(C(F)(F)F)c(NCc3cccnc3N(C)S(C)(=O)=O)n2)c1 [Example 39, diethyl [3-({4-[({2-[methyl(methylsulfonyl)amino]pyridin-3-yl}methyl)amino]-5-(trifluoromethyl)pyrimidin-2-yl}amino)phenyl]phosphonate] | – | > 6.00 | – | – | 5.00 to 6.00
CCOP(C)(=O)Cc1ccc(Nc2ncc(C(F)(F)F)c(Nc3ccc(C(C)C)c4c3C(=O)N(C)C4)n2)cc1 (centres unmarked) [Example 78, Ethyl methyl(4-{[4-{[2-methyl-3-oxo-7-(propan-2-yl)-2,3-dihydro-1H-isoindol-4-yl]amino}-5-(trifluoromethyl)pyrimidin-2-yl]amino}benzyl)phosphinate] | – | > 6.00 | > 6.00 | – | –
CCOc1ccc(Nc2nc(Nc3ccc(CP(=O)(OCC)OCC)cc3)ncc2C(F)(F)F)c2c1CN(C)C2=O [Example 206, Diethyl [4-({4-[(7-ethoxy-2-methyl-3-oxo-2,3-dihydro-1H-isoindol-4-yl)amino]-5-(trifluoromethyl)pyrimidin-2-yl}amino)benzyl]phosphonate] | > 6.00 | > 6.00 | – | – | –
CCOP(=O)(Cc1ccc(Nc2ncc(C(F)(F)F)c(Nc3ccc(N4CCN(C(C)=O)CC4)c4c3C(=O)N(C)C4)n2)c(OC)c1)OCC [Example 223, Diethyl (4-{[4-{[7-(4-acetylpiperazin-1-yl)-2-methyl-3-oxo-2,3-dihydro-1H-isoindol-4-yl]amino}-5-(trifluoromethyl)pyrimidin-2-yl]amino}-3-methoxybenzyl)phosphonate] | > 6.00 | > 6.00 | – | – | –
CCOP(=O)(Cc1ccc(Nc2ncc(C(F)(F)F)c(Nc3ccc(C4CCC(N5CCCC5)CC4)c4c3C(=O)N(C)C4)n2)c(OC)c1)OCC (centres unmarked) [Example 242] | > 6.00 | > 6.00 | – | – | –
CCOP(C)(=O)Cc1ccc(Nc2ncc(C(F)(F)F)c(Nc3ccccc3C(=O)NC)n2)cc1 (centres unmarked) [Example 22, Ethyl methyl(4-{[4-{[2-(methylcarbamoyl)phenyl]amino}-5-(trifluoromethyl)pyrimidin-2-yl]amino}benzyl)phosphinate] | – | > 6.00 | > 6.00 | > 6.00 | –
CCOP(=O)(Cc1ccc(Nc2ncc(C(F)(F)F)c(Nc3ccc([C@H]4CC[C@@H](OCC)CC4)c4c3C(=O)N(C)C4)n2)c(OC)c1)OCC [Example 167, Diethyl (4-{[4-{[7-(cis-4-ethoxycyclohexyl)-2-methyl-3-oxo-2,3-dihydro-1H-isoindol-4-yl]amino}-5-(trifluoromethyl)pyrimidin-2-yl]amino}-3-methoxybenzyl) phosphonate] | > 6.00 | > 6.00 | – | – | –
